A short description of data set [1]: Accelerated stability studies (PXRD physical form stability). The data set is classed as physicochemical. The settings on record: accelerated conditions 75% humidity and 40° C., one year, by PXRD. The procedure:
Stability studies of the DACT novel forms were conducted using accelerated conditions (75% humidity and 40° C.) of which are obvious to the artisan in the field, for more than one year. […] Selected data of the novel complexes of DACT:methylparaben, propylparaben and diphenic acid proves this point.

The subject of data set [2] is SK-ES-1. Briefly: Monolayer cell culture IC50 (CellTiter-Glo viability), SK-ES-1. The data set is classed as cell-based, human. The settings on record: Sarcoma, SK-ES-1, monolayer, 72 hours treatment, average of three replications. Here is the method:
(§1) Cancer cell lines listed in Table 1 were subjected for testing anti-cancer potency or the half maximal inhibitory concentration (IC50) of the D-Actinomycin (DACT) molecular complexes.
(§2) The SK-ES-1, U-2 OS, and SAOS-2 cells were cultured in a growth medium that is ATCC-formulated McCoy's 5a Medium Modified, Catalog No. 30-2007. The PC-3, PANC-1, SK-Mel-5, A549, H460, and H1299 were cultured in a growth medium that is ATCC-formulated Dulbecco's Modified Eagle's Medium (DMEM), Catalog No. 30-2002. The cells were seeded on 96-well microtiter plates with 3500 cells per well and cultured in an incubator (Model 3120, Thermo Scientific, USA) with a constant temperature at 37° C. and 5% carbon dioxide (CO2) gas for 24 hours.
(§3) The new DACT-molecular complexes were made into a series with concentration of 200 nM to 40 nM, 8 nM, 1.6 nM, 0.32 nM, and 0.064 nM. 100 μl of each solution was then added into each well to bring out the final concentration of the drug treatment at 100 nM, 20 nM, 4 nM, 0.8 nM, 0.16 nM, or 0.032 nM, respectively.
(§4) The treated cells in the 96 well plate was then further cultured at the same conditions for 72 hours and then subjected for a final cell viability measurement. The measurement used a homogeneous method to determine the number of metabolically active cells presented in each of treatments. A testing reagent for the measurement is a mixture solution of the CellTiter-Glo® 2.0 reagent (CTG, Promega Cat #G9243, USA) and growth medium in 1:1 ratio in this respect.
(§5) The 96-well plate with the new molecular complex treated cells was taken out from incubator after the 72 hours of incubation, and the treatment solution in each well was removed using a multichannel pipette, and 100 μl of the testing reagent were added into each well. The plate was then placed on a plate shaker for 15 min. The plate was covered with a piece of aluminum foil to protect the CTG luminescence during the shaking time.
(§6) Then 90 μl of the 100 μl testing reagent were transferred into an opaque-walled 96-well plate for the CTG luminescence reading on a plate reader (SynergyH4 Hybrid Reader, Biotek, USA). The luminescence intensity of each treatment was positively correlated with the number of cells survived during the treatments.
(§7) All the treatment data was normalized by comparing with the control samples that had only growth medium without any molecular complexes. The half maximal inhibitory concentration (IC50) data was calculated using the nonlinear regression model and dose-responses (inhibition) curve built in the software. Each of treatments was performed in three replications each time and repeated three times for validation. The IC50 average […] (Avg) and standard deviation (STDV) were calculated based on the three replications.

Data set [3] has as its system U-2 OS. Briefly: Monolayer cell culture IC50 (CellTiter-Glo viability), U-2 OS. Format: cell-based. The procedure:
as §1, §2, §3, §4, §5, §6, §7

Data set [4] has as its system SK-Mel-5. As to the kind of experiment: Monolayer cell culture IC50 (CellTiter-Glo viability), SK-Mel-5. Format: cell-based. Here is the method:
as §1, §2, §3, §4, §5, §6, §7

The subject of data set [5] is PC-3. As to the kind of experiment: Monolayer cell culture IC50 (CellTiter-Glo viability), PC-3. The data set is classed as cell-based. Here is the method: as §1, §2, §3, §4, §5, §6, §7
Data set [6] has as its system PANC-1. As to the kind of experiment: Monolayer cell culture IC50 (CellTiter-Glo viability), PANC-1. The data set is classed as cell-based. The procedure: as §1, §2, §3, §4, §5, §6, §7
Data set [7] deals with A549. As to the kind of experiment: Monolayer cell culture IC50 (CellTiter-Glo viability), A549. Format: cell-based. As to conditions: Homo sapiens, Lung, 72 hours treatment, average of three replications. Here is the method:
as §1, §2, §3, §4, §5, §6, §7

Data set [8] relates to H460. Briefly: Monolayer cell culture IC50 (CellTiter-Glo viability), H460. Format: cell-based. The settings on record: Homo sapiens, NCI-H460, Lung, 72 hours treatment, average of three replications. Here is the method:
as §1, §2, §3, §4, §5, §6, §7

Data set [9] has as its system H1299. Briefly: Monolayer cell culture IC50 (CellTiter-Glo viability), H1299. Format: cell-based. As to conditions: Homo sapiens, NCI-H1299, Lung, 72 hours treatment, average of three replications. The procedure: as §1, §2, §3, §4, §5, §6, §7
The conditions of data set [10]: in vivo; cited from earlier work.
For data set [11] the following is noted: in vivo; cited from earlier work. The source holds these as a separate data set.
The mark [12] stands for this setting: Test I, read-out: IC50 Test (I) Avg.
The mark [13] stands for this setting: Test II, read-out: IC50 Test (II) Avg.
Setting [14] is: Test III, read-out: IC50 Test (III) Avg.
Setting [15] is: Sarcoma, U-2 OS, monolayer, 72 hours treatment, Test I, average of three replications, read-out: IC50 Test (I) Avg.
[16] abbreviates: Sarcoma, U-2 OS, monolayer, 72 hours treatment, Test II, average of three replications, read-out: IC50 Test (II) Avg.
The mark [17] stands for this setting: Sarcoma, U-2 OS, monolayer, 72 hours treatment, Test III, average of three replications, read-out: IC50 Test (III) Avg.
[18] abbreviates: Skin, SK-Mel-5, monolayer, 72 hours treatment, Test I, average of three replications, read-out: IC50 Test (I) Avg.
Setting [19] is: Skin, SK-Mel-5, monolayer, 72 hours treatment, Test II, average of three replications, read-out: IC50 Test (II) Avg.
[20] abbreviates: Skin, SK-Mel-5, monolayer, 72 hours treatment, Test III, average of three replications, read-out: IC50 Test (III) Avg.
[21] abbreviates: Prostate, PC-3, monolayer, 72 hours treatment, Test I, average of three replications, read-out: IC50 Test (I) Avg.
The mark [22] stands for this setting: Prostate, PC-3, monolayer, 72 hours treatment, Test II, average of three replications, read-out: IC50 Test (II) Avg.
Where [23] appears, read: Prostate, PC-3, monolayer, 72 hours treatment, Test III, average of three replications, read-out: IC50 Test (III) Avg.
The mark [24] stands for this setting: Pancreatic, PANC-1, monolayer, 72 hours treatment, Test I, average of three replications, read-out: IC50 Test (I) Avg.
Setting [25] is: Pancreatic, PANC-1, monolayer, 72 hours treatment, Test II, average of three replications, read-out: IC50 Test (II) Avg.
Setting [26] is: Pancreatic, PANC-1, monolayer, 72 hours treatment, Test III, average of three replications, read-out: IC50 Test (III) Avg.

Each structure is given as a SMILES string. Where two headings read alike, the source gives them in different places.

Regarding `Cc1c2oc3c(C)ccc(C(=O)NC4C(=O)NC(C(C)C)C(=O)N5CCCC5C(=O)N(C)CC(=O)N(C)C(C(C)C)C(=O)OC4C)c3nc-2c(C(=O)NC2C(=O)NC(C(C)C)C(=O)N3CCCC3C(=O)N(C)CC(=O)N(C)C(C(C)C)C(=O)OC2C)c(N)c1=O.NC(CS)C(=O)O` (racemic) [DACT:DL-cysteine], the physical form stability result in data set [1] is listed as “shown physical stability”.
For the compound `Cc1c2oc3c(C)ccc(C(=O)N[C@@H]4C(=O)N[C@H](C(C)C)C(=O)N5CCC[C@H]5C(=O)N(C)CC(=O)N(C)[C@@H](C(C)C)C(=O)O[C@@H]4C)c3nc-2c(C(=O)N[C@@H]2C(=O)N[C@H](C(C)C)C(=O)N3CCC[C@H]3C(=O)N(C)CC(=O)N(C)[C@@H](C(C)C)C(=O)O[C@@H]2C)c(N)c1=O` [DACT, reference compound], the IC50 in [2] (Homo sapiens, SK-ES1, Test I, read-out: IC50 Test (I) Avg) worked out at 1.03 nM; in data set [2] (Homo sapiens, SK-ES1, Test II, read-out: IC50 Test (II) Avg), 0.56 nM; in data set [2] (Homo sapiens, SK-ES1, Test III, read-out: IC50 Test (III) Avg) it was 0.63 nM; in data set [3] (Homo sapiens, U2OS, 72 h, read-out: IC50 Test (I) Avg (nM)), 5.29 nM; in data set [3] (Homo sapiens, U2OS, 72 h, read-out: IC50 Test (II) Avg (nM)), 5.63 nM; in data set [3] (Homo sapiens, U2OS, 72 h, read-out: IC50 Test (III) Avg (nM)), 2.62 nM. Moreover, the IC50 in data set [4] (Homo sapiens, SK-MEL-5, 72 h, read-out: IC50 Test (I) Avg (nM)) was 0.61 nM; in data set [4] (Homo sapiens, SK-MEL-5, 72 h, read-out: IC50 Test (II) Avg (nM)), 0.5 nM; in [4] (Homo sapiens, SK-MEL-5, 72 h, read-out: IC50 Test (III) Avg (nM)) it was 2.9 nM; in [5] (Homo sapiens, PC-3, 72 h, read-out: IC50 Test (I) Avg (nM)) it was 8.81 nM; in data set [5] (Homo sapiens, PC-3, 72 h, read-out: IC50 Test (II) Avg (nM)) it was 7 nM; in [5] (Homo sapiens, PC-3, 72 h, read-out: IC50 Test (III) Avg (nM)) it was 7.28 nM. The half-inhibitory concentration (IC50) in data set [6] (Homo sapiens, PANC-1, 72 h, read-out: IC50 Test (I) Avg (nM)) turned out to be 5.68 nM; in data set [6] (Homo sapiens, PANC-1, 72 h, read-out: IC50 Test (II) Avg (nM)), 4.56 nM; in [6] (Homo sapiens, PANC-1, 72 h, read-out: IC50 Test (III) Avg (nM)), 4.74 nM; in data set [7] (setting [12]), 1.64 nM; in data set [7] (setting [13]), 1.85 nM; in data set [7] (setting [14]) it was 1.64 nM. The concentration for half-maximal inhibition (IC50) is 0.35 nM in [8] (setting [12]); 0.35 nM in data set [8] (setting [13]); 0.35 nM in [8] (setting [14]); 1.78 nM in [9] (setting [12]); 1.15 nM in data set [9] (setting [13]); 1.28 nM in [9] (setting [14]). For the same compound, in data set [10], the “absorption from the GI tract” value is given as “poorly absorbed”. Besides, the irritation to tissues result in [11] was “extremely irritating to tissues”.
On to `Cc1c2oc3c(C)ccc(C(=O)NC4C(=O)NC(C(C)C)C(=O)N5CCCC5C(=O)N(C)CC(=O)N(C)C(C(C)C)C(=O)OC4C)c3nc-2c(C(=O)NC2C(=O)NC(C(C)C)C(=O)N3CCCC3C(=O)N(C)CC(=O)N(C)C(C(C)C)C(=O)OC2C)c(N)c1=O.O=C(O)c1ccccc1-c1ccccc1C(=O)O` (centres unmarked) [DACT-diphenic Acid], for which the half-maximal inhibitory concentration (IC50) was found to be 4.34 nM in data set [3] (setting [15]); 4.3 nM in data set [3] (setting [16]); 2.69 nM in [3] (setting [17]); 0.42 nM in [4] (setting [18]); 0.32 nM in data set [4] (setting [19]); 2.3 nM in data set [4] (setting [20]). The IC50 amounted to 6.38 nM in data set [5] (setting [21]); 5.89 nM in [5] (setting [22]); 6.55 nM in data set [5] (setting [23]); 5.31 nM in data set [6] (setting [24]); 3.25 nM in data set [6] (setting [25]); 3.83 nM in [6] (setting [26]). Further, the physical form stability result in [1] is “stable”.
As for `COC(=O)c1ccc(O)cc1.Cc1c2oc3c(C)ccc(C(=O)NC4C(=O)NC(C(C)C)C(=O)N5CCCC5C(=O)N(C)CC(=O)N(C)C(C(C)C)C(=O)OC4C)c3nc-2c(C(=O)NC2C(=O)NC(C(C)C)C(=O)N3CCCC3C(=O)N(C)CC(=O)N(C)C(C(C)C)C(=O)OC2C)c(N)c1=O` (centres unmarked) [DACT-methylparaben], the IC50 in [2] (setting [12]) was 0.71 nM; in [2] (setting [13]), 0.51 nM; in data set [2] (setting [14]), 0.58 nM; in [3] (setting [15]) it was 4.3 nM; in data set [3] (setting [16]), 4.38 nM; in data set [3] (setting [17]) it was 2.27 nM. Further, the IC50 in data set [4] (setting [18]) stood at 0.36 nM; in data set [4] (setting [19]), 0.37 nM; in data set [4] (setting [20]), 2.3 nM; in data set [5] (setting [21]), 7.1 nM; in data set [5] (setting [22]), 5.53 nM; in [5] (setting [23]) it was 6.15 nM. Besides, the half-maximal inhibitory concentration (IC50) in data set [6] (setting [24]) stood at 4.15 nM; in data set [6] (setting [25]), 2.66 nM; in data set [6] (setting [26]), 3.48 nM. The physical form stability result in [1] is “stable”.

The values above are taken from patent publication US11319311B2, “Crystalline forms of Actinomycin D for treatment of cancer” (TRANSGENEX NANOBIOTECH, INC., priority 2018, dated 2022).
